Tests used:
[1] = biological target: T1, Amine oxidase [flavin-containing] B (Bos taurus, UniProt P56560); experiment: Catalytic constant was measured against monoamine oxidase B (MAO-B) from beef liver; details: cattle
T1 sequence (P56560 whole entry): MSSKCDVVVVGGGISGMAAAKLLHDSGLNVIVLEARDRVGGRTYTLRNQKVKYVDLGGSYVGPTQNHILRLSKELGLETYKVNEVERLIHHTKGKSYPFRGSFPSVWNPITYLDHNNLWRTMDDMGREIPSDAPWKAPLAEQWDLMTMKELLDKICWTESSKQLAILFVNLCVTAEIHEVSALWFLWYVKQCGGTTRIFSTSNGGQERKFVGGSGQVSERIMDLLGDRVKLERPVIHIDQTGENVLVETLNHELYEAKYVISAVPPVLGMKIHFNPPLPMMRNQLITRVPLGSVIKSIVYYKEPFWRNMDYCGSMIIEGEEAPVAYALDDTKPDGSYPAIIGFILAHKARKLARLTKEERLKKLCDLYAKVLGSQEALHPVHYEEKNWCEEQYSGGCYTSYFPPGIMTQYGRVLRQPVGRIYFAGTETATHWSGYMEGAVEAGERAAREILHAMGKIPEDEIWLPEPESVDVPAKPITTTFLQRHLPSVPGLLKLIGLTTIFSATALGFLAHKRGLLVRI

[2] = biological target: T1, Amine oxidase [flavin-containing] B; experiment: Ratio of Kcat and KM against monoamine oxidase B (MAO-B) from beef liver was calculated; details: cattle

SMILES | k cat [1] | Ratio [2]
CN1CC=C(c2ccccc2)CC1 | 3.4 s⁻¹ | 
C=CC1=CCN(C)CC1 |  | 2370
Cc1ccccc1C1=CC=[N+](C2CC2)CC1 |  | 630
CN1CC=C(Oc2ccccc2)CC1 |  | 4151
CN1CC=C(OC(=O)N(C)C)CC1 |  | 57
C1=C(Cc2ccccc2)CC[N+](C2CC2)=C1 |  | 1538
CN1CC=C(c2cccs2)CC1 |  | 55
C1=C(c2ccccc2)CCNC1 |  | 319
C1=C(Oc2cccs2)CC[N+](C2CC2)=C1 |  | 1900
CN1CC=C(c2ccc([N+](=O)[O-])cc2)CC1 |  | 16
C#CC1=CCN(C)CC1 |  | 790
Cn1cccc1C1=CC=[N+](C2CC2)CC1 |  | 413
CN1CC=C(C(C)(C)C)CC1 |  | 92
CN1CC=C(Cn2cccc2)CC1 |  | 347
CCCN1CC=C(c2ccccc2)CC1 |  | 4
CN1CC=C(c2ccc(N)cc2)CC1 |  | 54
Clc1ccc(C2=CCNCC2)cc1 |  | 382
CN1CC=C(C2CCCCC2)CC1 |  | 688
C1=C(Oc2ccccc2)CC[N+](C2CC2)=C1 |  | 1650
CN1CC=C(/C=C\c2ccccc2)CC1 |  | 912
C[C@@H]1NC(=O)[C@H](NC(=O)[C@@H](N)Cc2ccc(O)cc2)C(C)(C)SSC(C)(C)[C@@H](C(O)O)NC(=O)[C@H](Cc2ccccc2)NC1=O |  | 19
CCOC(=O)C1=CCN(C)CC1 |  | 433
CN1CC=C(CCc2ccccc2)CC1 |  | 1130
CN1CC=C(Cc2ccccc2)CC1 |  | 3580
O=C([O-])C(=O)O.O=[N+]([O-])c1ccc(OC2=CC=[N+](C3CC3)CC2)cc1 |  | 150
CN1CC=C(C2CC2)CC1 |  | 974
CN1CC=C(OC(=O)N(C)c2ccccc2)CC1 |  | 67
Clc1ccc(OC2=CC=[N+](C3CC3)CC2)cc1 |  | 136

Source: ChEMBL document CHEMBL1129640, “Assessment of structural requirements for the monoamine oxidase-B-catalyzed oxidation of 1,4-disubstituted-1,2,3,6-tetrahydropyridine derivatives related to the neurotoxin 1-methyl-4-phenyl-1,2,3,6-tetrahydropyridine” (J Med Chem, 1996)
